Values quoted from earlier work in US20110092560A1, “TOPICAL COMPOSITION FOR CONTROLLING ECTOPARASITES IN DOGS AND CATS” (CEVA SANTE ANIMALE SA, priority 2008, published 2011).

Assays:
[1] = mouse, in vivo, po
[2] = in vivo

Structure (SMILES): N#Cc1nn(-c2c(Cl)cc(C(F)(F)F)cc2Cl)c(N)c1[S+]([O-])C(F)(F)F (centres unmarked) [fipronil, Fipronil]
- metabolites eliminated in the faeces [1]: 45-75%
- metabolites eliminated in the urine [1]: 5-25%
- plasma half-life [1]: 149 to 200 h
- tissues in which residues were found [1]: fat, the adrenal glands, pancreas, skin, liver, kidney, and muscle
- carcinogenic, teratogenic or mutagenic potential [2]: not carcinogenic, teratogenic or mutagenic
